Measurements as given in patent US12174172B2, “Method for evaluating the efficacy of a composition in reducing the effects of cancer therapeutics on skin” (Johnson & Johnson Consumer Inc., priority 2019, dated 2024).
Several values for one entry are separate records, joined by “and”; a condition that tells them apart may be missing. Equal values may be shown once. Read-outs that look alike come from different tables or passages of the source. Marks after values point to notes of the source that are not given here.

Columns and labels:
desmoglein-1 (DSG1) [1] = test: 3D micro-epidermis model (EpiScreen): desmoglein-1 immunostaining; format: cell-based, human; settings: for activation at 0.1 µM: 100 nM, Tox = toxic, read-out: DSG 100 nM
Experimental: (§1) To assess the effects of such therapy molecules on the epidermis, keratinocytes were grown in the presence of kinase inhibitors during 3 days with high calcium concentration to induce keratinocyte differentiation and generate a 3D-stratified differentiated epidermis. Drug impact on the epidermis development was assessed via different keratinocyte markers including: • Ki-67, an universally expressed protein among proliferating cells and absent in the quiescent cells; • Filaggrin, a filament-associated protein that binds to keratin fibers and is a marker of terminal differentiation; • Desmoglein-1, a component of desmosomes and differentiation marker expressed in all epidermal layer above the basal layer; and • Involucrin, an early differentiation marker expressed in the spinous and granular layers and a protein precursor of the epidermal cornified envelope.
(§2) Human epidermal keratinocytes cells (HPEKs) from a juvenile donor (CellnTec, Switzerland) are cultured in flasks in proliferation medium. Keratinocytes are seeded at passage 6 into EpiScreen™ (Abzena, Cambridge, UK) plates containing collagen 1 coated disc micropatterns (CYTOO, Grenoble, France). Four hours later, unattached cells are washed off and a high calcium medium is added to induce keratinocytes differentiation. The day after, keratinocytes are treated with screening compounds, and Trichostatin A is added at 0.3 μM as an internal positive control. After three days of treatment, micro-epidermises are fixed with a formalin solution 10% for 30 minutes, then permeabilized with 0.1% Triton. Several immunostainings are performed: actin (Acti-Stain 555, PHDH1, Cytoskeleton), nuclei (Hoechst, H3570, Invitrogen), and one biomarker of interest per well either anti-involucrin (HPA055211, Sigma), anti-filaggrin (HPA030189, Sigma) or anti-desmoglein-1 (HPA022128, Sigma). Antibodies are added overnight at 4° C. before staining with secondary antibody, anti-rabbit 488 (711-545-152, Jackson) for 2 hours at room temperature.
(§3) Images of each well are acquired with the Operetta HCS platform (Perkin Elmer, Waltham, MA, USA) using a ×10 objective in confocal mode in eight z-planes from 2 μm to 44 μm in steps of 6 μm in each of the 3 channels: actin, nuclei, and one biomarker of interest. The first step of the image analysis consists in detecting micro-epidermis structures on the first z-plane by segmenting the actin staining. Micro-epidermis structures are validated based on several area and roundness min and max criteria. Then, the area of each biomarker staining is measured inside the valid micro-epidermis masks through each z-plane. For all homogeneous biomarker staining, their intensity through the different planes is measured.
(§4) The actin network of each micro-epidermis is analyzed in each z-plane in order to determine the average 3D structure edges. The biomarker intensity is measured in each z-plane for each structure, and then averaged with the other results generated in the same well. Based on the data generated in the two previous steps, an average 3D reconstruction image is generated. It consists of a meshwork that delimits the structure edges, and a color scaled volume that corresponds to the biomarkers distribution and expression.
The effect of 8 oncology molecules, selected from first generation EGFRi and pan-kinase inhibitors which mostly target VEGFR and second and third generation therapies targeting main mutations relating to first generation treatment resistance, were assessed in vitro using a 3D micro-epidermis model. The drug incubation concentrations (3, 10, 30, 100 nM) were selected to reflect the clinically relevant (unbound) drug exposures (Table 2). The drug impact was assessed by analysis of tissue size and keratinocyte proliferation using Ki-67 staining and keratinocyte differentiation using filaggrin, desmoglein-1 and involucrin staining. […]

involucrin (IVL) = test: 3D micro-epidermis model (EpiScreen): involucrin immunostaining; format: cell-based, human; settings: for IVL 10 μM / activation at 0.1 µM / activation at 1 µM: Tox = toxic; for activation at 0.1 µM / activation at 1 µM: Homo sapiens, 72 h; for activation at 0.1 µM: 100 nM
Experimental: as §1, §2, §3, §4
The effect of 8 oncology molecules, selected from first generation EGFRi and pan-kinase inhibitors which mostly target VEGFR and second and third generation therapies targeting main mutations relating to first generation treatment resistance, were assessed in vitro using a 3D micro-epidermis model. […] The drug impact was assessed by analysis of tissue size and keratinocyte proliferation using Ki-67 staining and keratinocyte differentiation using filaggrin, desmoglein-1 and involucrin staining.
Size of the epidermis and the expression of the protein junction desmoglein-1 (DSG1), involucrin (IVL) and filaggrin (FLG) was assessed by immunostaining and compared to untreated control. […]

filaggrin (FLG) = test: 3D micro-epidermis model (EpiScreen): filaggrin immunostaining; format: cell-based, human; settings: for FLG 10 μM / activation at 0.1 µM / activation at 1 µM: Tox = toxic;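 as to all read-outs here: human primary epidermal keratinocytes differentiated in high calcium into 3D micro-epidermises, compound-treated for three days, imaged by confocal high-content microscopy, filaggrin staining intensity quantified within actin-segmented structures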
desmoglein-1 (DSG1) [2] = test: 3D micro-epidermis model (EpiScreen): desmoglein-1 immunostaining; format: cell-based, human; settings: supplementary data, Tox = toxic; for activation at 1 µM: Homo sapiens, 72 h, read-out: DSG 1 μM
[3] = tested on: Human epidermal keratinocytes cells (HPEKs), 3D micro-epidermis; test: 3D micro-epidermis model (EpiScreen): epidermis size, toxicity, dose response, classification; format: cell-based; settings: for Dose in response: variation of protein expression at 3, 10, 30 nM (EGFRi) or 3, 10, 30, 100 nM (VEGFRi); for Dose in response / Dose/response: markers in brackets; for Dose/response: supplementary table, per run (1st or 2nd Run);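 as to all read-outs here: keratinocytes on micropatterned discs in high-calcium medium, drug exposure for three days, then fixation and confocal high-content imaging of actin, nuclei and a marker, vehicle DMSO-matched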
[4] = cited from earlier work
[5] = Homo sapiens, 72 h, supplementary data
[6] = Homo sapiens, 72 h, 100 nM, supplementary data, two runs, read-out: FLG 100 nM
[7] = Homo sapiens, 72 h, supplementary data, two runs
[8] = Table 3, 30 nM (EGFRi) or 100 nM (VEGFRi), 3 days, vs untreated control, superscript = significance footnote
[9] = Table 3, pro-proliferation or pro-differentiation

## CC#CC(=O)N1CCC[C@H]1c1nc(-c2ccc(C(=O)Nc3ccccn3)cc2)c2c(N)nccn12 [Acalabrutinib]
desmoglein-1 (DSG1) [1]; [5]
  activation at 0.1 µM: -26%
Involucrin (IVL); supplementary data, two runs
  IVL 10 μM: 25%
  activation at 0.1 µM: 11%
  activation at 1 µM: 15%
Filaggrin (FLG); supplementary data, two runs
  FLG 10 μM: 33%
Filaggrin (FLG); [6]
  activation at 0.1 µM: 6%
Filaggrin (FLG); [7]
  activation at 1 µM: 15%
desmoglein-1 (DSG1) [2]
  DSG 10 μM: −7.50%
  activation at 1 µM: -15%

## COc1cc2ncnc(Nc3ccc(F)c(Cl)c3)c2cc1OCCCN1CCOCC1 [Gefitinib]
[3]
  Toxicity at 1 μM: Yes
  Dose/response: Yes (DSG)
[3]; 3, 10, 30 nM
  effect on desmoglein-1, involucrin and filaggrin expression (dose dependence): increased in a dose-dependent manner only the expression of desmoglein-1
[3]; Table 1 summary of drug effect on epidermis
  Epidermis size: Unchanged
[3]; Table 1 summary, pro-differentiation / pro-proliferation
  Classification: Pro-differentiation
[3]; [8]
  Epidermis size: Unchanged^4
[3]; [9]
  Classification: Pro-
[3]; Table 3
  Dose in response: Yes
desmoglein-1 (DSG1) [1]; 3 nM, supplementary data
  DSG 3 nM: −8%
desmoglein-1 (DSG1) [1]; 30 nM, supplementary data
  DSG 30 nM: 15%
desmoglein-1 (DSG1) [1]; Homo sapiens, 72 h, 10 nM, supplementary data, read-out: DSG 10 nM
  activation at 0.01 µM: 0%
desmoglein-1 (DSG1) [1]; [5]
  activation at 0.1 µM: 41%
desmoglein-1 (DSG1) [1]; Table 1 summary
  DSG-1 expression: Increased
Involucrin (IVL); 3 nM, supplementary data
  IVL 3 nM: 23%
Involucrin (IVL); 10 nM, supplementary data, two runs
  IVL 10 nM: 8%
Involucrin (IVL); 30 nM, supplementary data
  IVL 30 nM: 23%
Involucrin (IVL); supplementary data, two runs
  activation at 0.1 µM: 29%
Involucrin (IVL); Table 1 summary
  IVL expression: Increased
Filaggrin (FLG); 3 nM, supplementary data
  FLG 3 nM: 10%
Filaggrin (FLG); 30 nM, supplementary data
  FLG 30 nM: 5%
Filaggrin (FLG); Homo sapiens, 72 h, read-out: FLG 10 nM, 10 nM, supplementary data, two runs
  activation at 0.01 µM: 3%
Filaggrin (FLG); Homo sapiens, 72 h, read-out: FLG 100 nM, 100 nM, supplementary data, two runs
  activation at 0.1 µM: 28%
Filaggrin (FLG); Table 1 summary
  FLG expression: Increased
[4]; maximal plasma concentration after a single daily-recommended dose, human
  Cmax: 356 nM
[4]; unbound to plasma protein
  Unbound fraction: 3.4%**

## CCCS(=O)(=O)Nc1ccc(F)c(C(=O)c2c[nH]c3ncc(-c4ccc(Cl)cc4)cc23)c1F [Vemurafenib]
desmoglein-1 (DSG1) [1]; [5]
  activation at 0.1 µM: -26%
Involucrin (IVL); supplementary data, two runs
  IVL 10 μM: −40%
  activation at 0.1 µM: -11%
  activation at 1 µM: -24%
Filaggrin (FLG); supplementary data, two runs
  FLG 10 μM: 126%
Filaggrin (FLG); [6]
  activation at 0.1 µM: 23%
Filaggrin (FLG); [7]
  activation at 1 µM: 65%
desmoglein-1 (DSG1) [2]
  DSG 10 μM: −58%
  activation at 1 µM: -33%

## CC(=O)Nc1ccc(O)cc1 [Acetaminophen]
[3]; [8]
  Epidermis size: Unchanged^4
[3]; [9]
  Classification: Unchanged
[3]; Table 3
  Dose in response: No
[3]; micro-epidermis model
  impact on all measured parameters / epidermis development: no effect
[3]
  Dose/response: No
Involucrin (IVL); supplementary data, two runs
  IVL 10 μM: 10% and 8%

## CNC(=O)c1ccc(N2C(=S)N(c3ccc(C#N)c(C(F)(F)F)c3)C(=O)C2(C)C)cc1F [Enzalutamide]
[3]
  Dose/response: No
desmoglein-1 (DSG1) [1]; [5]
  activation at 0.1 µM: -6%
Involucrin (IVL); supplementary data, two runs
  IVL 10 μM: 2%
  activation at 0.1 µM: 9.3%
  activation at 1 µM: 6.2%
Filaggrin (FLG); supplementary data, two runs
  FLG 10 μM: −1%
Filaggrin (FLG); [6]
  activation at 0.1 µM: 2%
Filaggrin (FLG); [7]
  activation at 1 µM: 9.8%
desmoglein-1 (DSG1) [2]
  DSG 10 μM: −12%
  activation at 1 µM: -6%

## Cc1ccnc2c1NC(=O)c1cccnc1N2C1CC1 [Nevirapine]
[3]
  Dose/response: Yes (DSG)
desmoglein-1 (DSG1) [1]; [5]
  activation at 0.1 µM: -8%
Involucrin (IVL); supplementary data, two runs
  IVL 10 μM: 20%
  activation at 0.1 µM: 17%
  activation at 1 µM: 15%
Filaggrin (FLG); supplementary data, two runs
  FLG 10 μM: 2%
Filaggrin (FLG); [6]
  activation at 0.1 µM: 7%
Filaggrin (FLG); [7]
  activation at 1 µM: 8%
desmoglein-1 (DSG1) [2]
  DSG 10 μM: −28%
  activation at 1 µM: -15%

## COc1cc2c(Nc3ccc(Br)cc3F)ncnc2cc1OCC1CCN(C)CC1 [Vandetanib]
desmoglein-1 (DSG1) [1]; [5]
  activation at 0.1 µM: 5%
Involucrin (IVL); supplementary data, two runs
  activation at 0.1 µM: 25%
  activation at 1 µM: 51%
desmoglein-1 (DSG1) [2]
  activation at 1 µM: 30%
